Patent US20160137639A1, “TRIAZOLE-ISOXAZOLE COMPOUND AND MEDICAL USE THEREOF” (JAPAN TOBACCO INC., priority 2012, published 2016)
Read-outs that look alike come from different tables or passages of the source.

Legend:
human RORγ = biological target: T1, human RORγ (Homo sapiens, UniProt P51449); test: Luciferase reporter gene assay of inhibitory effect against RORγ transcriptional activity (GAL4-hRORγ plasmid in CHO cells); assay type: cell-based
T1 construct: human, NM_005060.3 and from Ser253 to Lys518; expressed in transfected cells; host or cells: CHO cells (transient co-transfection with pG5-Luc reporter)
T1 sequence (P51449 253-518): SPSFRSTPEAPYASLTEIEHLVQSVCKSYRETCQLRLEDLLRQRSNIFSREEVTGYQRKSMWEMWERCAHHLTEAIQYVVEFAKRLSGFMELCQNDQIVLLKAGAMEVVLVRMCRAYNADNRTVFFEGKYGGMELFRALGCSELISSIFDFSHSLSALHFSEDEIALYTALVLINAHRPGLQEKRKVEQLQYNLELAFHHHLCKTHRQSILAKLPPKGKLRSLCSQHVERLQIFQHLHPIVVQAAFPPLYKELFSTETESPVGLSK

mouse RORγ = biological target: T2, mouse RORγ (Mus musculus, UniProt P51450); test: Luciferase reporter gene assay of inhibitory effect against RORγ transcriptional activity (GAL4-mRORγ plasmid in CHO cells); assay type: cell-based
T2 construct: mouse, NM_011281.2 and from Ile251 to Lys516; expressed in transfected cells; host or cells: CHO cells (transient co-transfection with pG5-Luc reporter)
T2 sequence (P51450 251-516): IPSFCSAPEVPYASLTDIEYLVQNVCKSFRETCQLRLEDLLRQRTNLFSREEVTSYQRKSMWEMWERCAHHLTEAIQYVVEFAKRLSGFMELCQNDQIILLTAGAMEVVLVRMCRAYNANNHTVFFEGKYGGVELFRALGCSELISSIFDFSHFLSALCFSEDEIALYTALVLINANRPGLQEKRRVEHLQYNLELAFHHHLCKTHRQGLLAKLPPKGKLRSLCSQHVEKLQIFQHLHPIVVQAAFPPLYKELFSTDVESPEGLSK
How it was run: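 Readout is intracellular luciferase after 2-day compound exposure (8 concentrations, 0.1% DMSO) in CHO cells expressing GAL4 fused to mouse RORγ LBD residues Ile251–Lys516 plus pG5-Luc reporter. EC50 fitted from %-of-control; points showing resazurin-detected cytotoxicity dropped.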

Row | SMILES | EC50 (human RORγ; read-out: LUC EC50 (μM) hRORg) [µM] | EC50 (mouse RORγ; read-out: LUC EC50 (μM) mRORg) [µM] | EC50 (human RORγ; read-out: LUC EC50 hRORg) [µM] | EC50 (mouse RORγ; read-out: LUC EC50 mRORg) [µM]
1 | Cc1c(Cl)cccc1NC(=O)CCc1nnc(C(C)CC(C)C)n1C1CC1 (racemic) [Example F-98] | > 3 | < 3 |  | 
2 | CC(=O)N1C[C@H](C(=O)Nc2ccc(C)cc2C)[C@@H](c2nnc(-c3cc(CCC(C)C)on3)n2C2CC2)C1 [Example F-632] |  |  | < 3 | < 3
3 | Cc1ccc(NC(=O)[C@H]2CN(C)CC[C@@H]2c2nnc(CCCC(C)(C)C)n2C2CC2)c(C)c1 (racemic) [Example F-394] | < 3 | < 3 |  | 
4 | CCc1cccc(NC(=O)CCc2nnc(CCC(C)C)n2C2CC2)c1 [Example F-132] | > 3 | > 3 |  | 
5 | CCn1c(CCC(=O)NCc2ccccc2)nnc1C1Cc2ccccc2C1 [Example F-22] | > 3 | > 3 |  | 
6 | Cc1ccc(NC(=O)[C@H]2CN(C(=O)N3CCN(C)CC3)C[C@@H]2c2nnc([C@H]3C[C@@H](CC(C)(C)C)C3)n2C2CC2)c(C)c1 [Example F-651] |  |  | < 3 | < 3
7 | Cc1ccc(NC(=O)[C@H]2CC(N(C)C(C)C)C[C@@H]2c2nnc([C@H]3C[C@@H](CC(C)C)C3)n2C2CC2)c(C)c1 (single isomer, unassigned) [Example F-539] |  |  | > 3 | < 3
8 | CC(=O)N1C[C@H](C(=O)Nc2ccc(C)cc2C)[C@@H](c2nnc(C3CC4(CCCCC4)C3)n2C2CC2)C1 (racemic) [Example F-452] | < 3 | < 3 |  | 
9 | COc1cccc(NC(=O)CCc2nnc(CCC(C)C)n2C2CC2)c1C [Example F-85] | > 3 | > 3 |  | 
10 | Cc1cc(F)ccc1NC(=O)C[C@H](CC(C)C)c1nnc(-c2cc(CC(C)C)on2)n1C1CC1 [Example F-607] |  |  | < 3 | < 3
11 | Cc1ccc(NC(=O)C[C@H](CCC(=O)O)c2noc(-c3cc(CC(C)(C)C)on3)c2C2CC2)c(Cl)c1 [Example E-06] | < 3 | < 3 |  | 
12 | Cc1ccc(NC(=O)C[C@@H](c2nnc([C@H]3C[C@@H](CC(C)C)C3)n2C2CC2)N(C)C)c(C)c1 [Example F-516] |  |  | < 3 | < 3
13 | Cc1ccc(NC(=O)CC(CCN(C)C)c2nnc(CCCC(C)C)n2C2CC2)c(C)c1 (racemic) [Example F-276] | > 3 | > 3 |  | 
14 | CC(C)CCc1nnc(CCC(=O)NCc2ccccc2C(F)(F)F)n1C1CC1 [Example F-130] | > 3 | > 3 |  | 
15 | Cc1ccc(NC(=O)C[C@@H](CCO)c2noc([C@H]3C[C@@H](CC(C)C)C3)c2C2CC2)c(C)c1 [Example F-579] |  |  | < 3 | < 3
16 | CCn1c(CCC(=O)Nc2cccc3ccccc23)nnc1C1Cc2ccccc2C1 [Example F-1] | < 3 | < 3 |  | 
17 | Cc1ccc(NC(=O)[C@H]2CN(S(C)(=O)=O)C[C@@H]2c2nnc(CCCC(C)(C)C)n2C2CC2)c(C)c1 (racemic) [Example F-397] | < 3 | < 3 |  | 
18 | Cc1c(Cl)cccc1NC(=O)CCc1nnc(CN2C(=O)c3ccccc3C2=O)n1C1CC1 [Example F-209] | > 3 | > 3 |  | 
19 | CCN(CC)C(=O)CN1C[C@H](C(=O)Nc2ccc(C)cc2C)[C@@H](c2nnc([C@H]3C[C@@H](CC(C)C)C3)n2C2CC2)C1 [Example F-653] |  |  | < 3 | < 3
20 | CC(C)CCc1nnc(CCC(=O)NC[C@H](O)c2ccccc2)n1C1CC1 [Example F-103] | > 3 | > 3 |  | 
21 | CCn1c(C(O)CC(=O)Nc2cccc3ccccc23)nnc1C1Cc2ccccc2C1 (racemic) [Example F-34] | > 3 | > 3 |  | 
22 | COc1ccccc1NC(=O)CCc1nnc(CCC(C)C)n1C1CC1 [Example F-73] | > 3 | > 3 |  | 
23 | Cc1cc(F)ccc1NC(=O)CCc1nnc(CCC(C)C)n1C1CC1 [Example F-137] | > 3 | < 3 |  | 
24 | CC(=O)N1CC[C@H](C(=O)Nc2ccc(C)cc2C)[C@H]1c1nnc(CCC2CCCCC2)n1C1CC1 [Example F-227] | < 3 | < 3 |  | 
25 | Cc1ccc(NC(=O)[C@H]2CN(S(=O)(=O)C(F)(F)F)C[C@@H]2c2nnc([C@H]3C[C@@H](CC(C)(C)C)C3)n2C2CC2)c(C)c1 [Example F-542] |  |  | < 3 | < 3
26 | CNC(=O)N1C[C@H](C(=O)Nc2ccc(C)cc2C)[C@@H](c2nnc(CCCC(C)(C)C)n2C2CC2)C1 (racemic) [Example F-446] | < 3 | < 3 |  | 
